Test results published in patent US4971985A, “Pyridylketoxime ether compound and pharmaceutical composition containing it” (Kaken Pharmaceutical Co., Ltd., priority 1988, dated 1990).
pIC50: −log10 of the molar value. Counter-ions that a name gives are not always drawn. Like-named read-outs stand apart in the source and are kept apart here.

Experiments:
erythrocytes = test: Activity to improve the deformation of erythrocytes (time to pass through millipore filter); assay type: cell-based, male New Zealand rabbit; conditions: rabbit washed erythrocytes treated with Ca^2+ and ionofore A-23187; 5 μm millipore filter
Method: A suspension of washed erythrocytes was prepared from a blood collected by heart puncture from a male New Zealand rabbit having a body weight of about 3 kg and having Heparin added thereto, by using a Krebs-Henseleit solution containing 20 mM of HEPES. […] As a control drug, W-7 was used.

Ca^2 + Channel = biological target: T1, Ca^2 + Channel (Cavia porcellus, UniProt O35505); test: Calcium channel antagonism (isolated guinea pig cecum string, calcium chloride concentration reaction curve); assay type: cell-based, male Hartley guinea pig; conditions: high potassium Krebs solution, 32° C, pretreatment 30 minutes, read-out: Ca^2 + Channel antagonism (pA2) (converted)
T1 construct: The cecum string of a male Hartley guinea pig; from tissue; host or cells: isolated cecum string (taenia caeci) of male Hartley guinea pig
T1 sequence (O35505 whole entry): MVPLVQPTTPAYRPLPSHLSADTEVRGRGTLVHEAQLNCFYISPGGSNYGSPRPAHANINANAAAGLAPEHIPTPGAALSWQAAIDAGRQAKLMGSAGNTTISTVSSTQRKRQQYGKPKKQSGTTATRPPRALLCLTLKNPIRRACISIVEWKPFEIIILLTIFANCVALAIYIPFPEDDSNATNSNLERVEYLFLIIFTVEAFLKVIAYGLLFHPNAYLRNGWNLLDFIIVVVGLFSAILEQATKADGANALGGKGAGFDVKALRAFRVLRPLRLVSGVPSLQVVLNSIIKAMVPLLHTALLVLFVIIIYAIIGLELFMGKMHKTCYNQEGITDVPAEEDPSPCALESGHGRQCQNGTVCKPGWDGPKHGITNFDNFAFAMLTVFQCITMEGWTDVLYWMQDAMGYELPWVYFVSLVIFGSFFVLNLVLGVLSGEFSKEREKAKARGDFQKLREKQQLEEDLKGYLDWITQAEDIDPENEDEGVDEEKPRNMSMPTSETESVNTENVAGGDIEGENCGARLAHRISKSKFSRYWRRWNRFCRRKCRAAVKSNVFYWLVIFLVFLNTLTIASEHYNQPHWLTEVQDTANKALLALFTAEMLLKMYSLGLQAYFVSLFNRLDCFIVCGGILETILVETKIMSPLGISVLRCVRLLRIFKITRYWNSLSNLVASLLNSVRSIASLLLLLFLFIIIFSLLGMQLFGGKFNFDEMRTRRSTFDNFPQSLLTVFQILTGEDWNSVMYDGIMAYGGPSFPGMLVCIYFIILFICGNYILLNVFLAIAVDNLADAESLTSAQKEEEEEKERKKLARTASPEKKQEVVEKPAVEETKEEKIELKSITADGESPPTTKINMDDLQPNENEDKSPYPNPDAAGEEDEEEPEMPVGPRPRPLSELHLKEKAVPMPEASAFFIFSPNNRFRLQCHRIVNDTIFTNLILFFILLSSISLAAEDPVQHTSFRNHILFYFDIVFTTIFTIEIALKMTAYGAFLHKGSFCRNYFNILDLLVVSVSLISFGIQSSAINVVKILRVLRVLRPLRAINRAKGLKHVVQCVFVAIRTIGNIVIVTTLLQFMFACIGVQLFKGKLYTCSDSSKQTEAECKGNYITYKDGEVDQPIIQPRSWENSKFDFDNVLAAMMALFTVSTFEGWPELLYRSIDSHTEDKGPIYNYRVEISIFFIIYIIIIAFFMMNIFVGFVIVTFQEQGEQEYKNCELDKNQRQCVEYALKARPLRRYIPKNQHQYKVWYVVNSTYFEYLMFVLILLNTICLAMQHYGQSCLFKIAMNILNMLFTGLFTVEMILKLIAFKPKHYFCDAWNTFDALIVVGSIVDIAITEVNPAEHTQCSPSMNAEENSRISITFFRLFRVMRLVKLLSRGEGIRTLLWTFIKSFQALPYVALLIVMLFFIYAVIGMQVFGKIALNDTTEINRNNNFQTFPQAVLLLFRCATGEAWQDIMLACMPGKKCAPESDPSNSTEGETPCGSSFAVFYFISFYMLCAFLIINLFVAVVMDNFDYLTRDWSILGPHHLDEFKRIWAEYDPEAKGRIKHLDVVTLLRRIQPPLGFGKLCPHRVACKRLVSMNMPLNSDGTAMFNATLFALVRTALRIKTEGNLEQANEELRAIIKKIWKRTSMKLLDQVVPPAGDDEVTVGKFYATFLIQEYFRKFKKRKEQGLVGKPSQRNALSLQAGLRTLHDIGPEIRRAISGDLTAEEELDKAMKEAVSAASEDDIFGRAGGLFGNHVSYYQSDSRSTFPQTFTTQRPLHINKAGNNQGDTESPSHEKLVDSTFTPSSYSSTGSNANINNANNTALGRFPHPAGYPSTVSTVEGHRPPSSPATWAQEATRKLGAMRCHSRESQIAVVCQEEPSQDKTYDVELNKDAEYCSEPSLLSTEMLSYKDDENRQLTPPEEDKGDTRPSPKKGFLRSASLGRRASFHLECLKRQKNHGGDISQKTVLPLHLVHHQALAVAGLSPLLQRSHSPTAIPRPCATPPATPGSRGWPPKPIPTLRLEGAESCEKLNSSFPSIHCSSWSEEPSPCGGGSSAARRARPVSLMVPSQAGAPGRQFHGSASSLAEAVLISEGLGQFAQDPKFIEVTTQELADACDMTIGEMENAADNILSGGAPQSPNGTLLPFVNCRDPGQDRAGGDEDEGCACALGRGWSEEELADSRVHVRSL
Method: The cecum string of a male Hartley guinea pig having a body weight of 350 g was taken out, and while air was supplied,.it was hanged with a load of 0.5 g in a high potassium Krebs solution bath (32° C) having calcium removed. Calcium chloride was accumulatively added, and the reaction was recorded by means of an isotonic tranduser (manufactured by Nippon Koden K. K.) to obtain a constant standard concentration reaction curve.
On the other hand, pretreatment with a compound of the present invention was conducted for 30 minutes, and then calcium chloride was added to the reaction bath, and from concetration reaction curve thereby obtained, pA2 was obtained.

[1] = biological target: T2, bovine cerebral calmodulin (Bos taurus, UniProt P62157); test: Calmodulin antagonism (inhibition of 5'-AMP formation by calmodulin-stimulated c-AMP-PDE); assay type: biochemical
T2 construct: bovine cerebral calmodulin; from tissue; host or cells: bovine brain (calmodulin); bovine myocardium (PDE)
Excerpt: As a control drug, W-7 [N-(6-aminohexyl)-5-chloro-1-naphthalenesulfonamide]was used.

[2] = 50 m units bovine cerebral calmodulin, 0.1 mM Ca^2+, 1 μM c-AMP, 0.875 m units bovine myocardial c-AMP-PDE, read-out: Calmodulin antagonism IC50

pIC50 [1, 2]	SMILES	Activity to improve the deformation of erythrocytes [pass through time (sec.)] (erythrocytes) [s]	Kb (Ca^2 + Channel) [nM]	pIC50 [1]
–	CNc1ccc2oc(C[C@H]3O[C@@]4(CC[C@H]3C)O[C@H]([C@H](C)C(=O)c3ccc[nH]3)[C@H](C)C[C@H]4C)nc2c1C(=O)O [Calcium salt of A 23187, reference compound]	39	–	–
–	COc1ccc(CON=C(c2ccccc2)c2ccccn2)cc1OC [Compound 13, O-(3,4-dimethoxybenzyl)-phenyl-2-pyridylketoxime]	16	148	–
–	c1ccc(C(=NOCc2cccc3ccccc23)c2cccnc2)cc1 [Compound 20, O-(1-naphthylmethyl)-phenyl-3-pyridylketoxime]	20	525	–
5.06	Clc1ccccc1CCON=C(c1ccccc1)c1cccnc1 [Compound 46]	18	–	–
5.20	Clc1cccc(CCON=C(c2ccccc2)c2cccnc2)c1 [Compound 47]	15	–	–
–	Clc1ccc(C(=NOCCc2ccccc2)c2cccnc2)cc1 [Compound 57]	20	–	5.02
–	Clc1ccccc1C(=NOCCc1ccccc1)c1cccnc1 [Compound 58]	12	–	5.46
5.10	Cc1ccc(C)c(C(=NOCCc2ccccc2)c2cccnc2)c1 [Compound 62]	18	933	–
5.30	Fc1cccc(C(=NOCCc2ccccc2)c2cccnc2)c1 [Compound 63]	18	603	–
5.19	FC(F)(F)c1cccc(C(=NOCCc2ccccc2)c2cccnc2)c1 [Compound 64]	16	871	–
–	O=[N+]([O-])c1cccc(C(=NOCCc2ccccc2)c2cccnc2)c1 [Compound 65]	18	692	–
–	c1ccc(CCON=C(c2cccnc2)c2cccs2)cc1 [Compound 66]	17	525	–
–	NCCCCCCNS(=O)(=O)c1cccc2c(Cl)cccc12 [Compound W-7, N-(6-aminohexyl)-5-chloro-1-naphthalenesulfonamide, reference compound]	25	–	–

SMILES	pIC50 [1, 2]	Activity to improve the deformation of erythrocytes [pass through time (sec.)] (erythrocytes) [s]	Kb (Ca^2 + Channel) [nM]	pIC50 [1]
c1ccc(CCON=C(c2ccccc2)c2cccnc2)cc1 [Compound 1, O-(2-phenylethyl)-phenyl-3-pyridylketoxime]	5.42	12	275	–
COc1ccc(CON=C(c2ccccc2)c2cccnc2)cc1OC [Compound 14, O-(3,4-dimethoxybenzyl)-phenyl-3-pyridiylketoxime]	5.10	15	437	–
c1ccc(OCCON=C(c2ccccc2)c2cccnc2)cc1 [Compound 26, O-[(2-phenoxy)ethyl]-phenyl-3-pyridylketoxime]	5.00	18	234	–
Cc1ccccc1CCON=C(c1ccccc1)c1cccnc1 [Compound 43, O-[2-(2-methylphenyl)ethyl]-phenyl-3-pyridylketoxime]	5.39	14	479	–
